Results as given in PubChem BioAssay (NCI).
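Dose response: 5 concentrations. Exposure: 48 h. Format: 96-well plates. Endpoint: linear interpolation; highest concentration if not reached. TGI: concentration producing complete growth inhibition.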

Columns and labels:
Assay in all cases: NCI tumour cell line growth inhibition, 48 h
IGROV1 ovarian = system: IGROV1 ovarian
U251 CNS = system: U251 CNS
HL-60(TB) leukemia = system: HL-60(TB) leukemia
SF-539 CNS = system: SF-539 CNS
K-562 leukemia = system: K-562 leukemia
HCC-2998 colon = system: HCC-2998 colon
OVCAR-8 ovarian = system: OVCAR-8 ovarian
SK-MEL-28 melanoma = system: SK-MEL-28 melanoma
M14 melanoma = system: M14 melanoma
UO-31 renal = system: UO-31 renal
MOLT-4 leukemia = system: MOLT-4 leukemia
RPMI-8226 leukemia = system: RPMI-8226 leukemia
M19-MEL melanoma = system: M19-MEL melanoma
SNB-78 CNS = system: SNB-78 CNS
UACC-62 melanoma = system: UACC-62 melanoma
ACHN renal = system: ACHN renal
A549 NSCLC = system: A549 NSCLC
HOP-62 NSCLC = system: HOP-62 NSCLC
OVCAR-4 ovarian = system: OVCAR-4 ovarian
MALME-3M melanoma = system: MALME-3M melanoma
XF 498 CNS = system: XF 498 CNS
SW-620 colon = system: SW-620 colon
DLD-1 colon = system: DLD-1 colon
SNB-75 CNS = system: SNB-75 CNS
HT29 colon = system: HT29 colon
HCT-15 colon = system: HCT-15 colon
LXFL 529 NSCLC = system: LXFL 529 NSCLC
SK-MEL-2 melanoma = system: SK-MEL-2 melanoma
DMS 114 small cell lung = system: DMS 114 small cell lung
HCT-116 colon = system: HCT-116 colon
SK-OV-3 ovarian = system: SK-OV-3 ovarian
RXF-631 renal = system: RXF-631 renal
DMS 273 small cell lung = system: DMS 273 small cell lung
SK-MEL-5 melanoma = system: SK-MEL-5 melanoma
RXF 393 renal = system: RXF 393 renal
NCI-H226 lung = system: NCI-H226 lung
KM12 colon = system: KM12 colon
EKVX NSCLC = system: EKVX NSCLC
OVCAR-5 ovarian = system: OVCAR-5 ovarian
UACC-257 melanoma = system: UACC-257 melanoma
CCRF-CEM leukemia = system: CCRF-CEM leukemia
NCI-H460 lung = system: NCI-H460 lung
NCI-H23 lung = system: NCI-H23 lung
TK-10 renal = system: TK-10 renal
SF-295 CNS = system: SF-295 CNS
KM20L2 colon = system: KM20L2 colon
CAKI-1 renal = system: CAKI-1 renal
OVCAR-3 ovarian = system: OVCAR-3 ovarian
786-0 renal = system: 786-0 renal
A498 renal = system: A498 renal
HOP-92 NSCLC = system: HOP-92 NSCLC
SR leukemia = system: SR leukemia
LOX IMVI melanoma = system: LOX IMVI melanoma
NCI-H522 lung = system: NCI-H522 lung
SN12C renal = system: SN12C renal
SNB-19 CNS = system: SNB-19 CNS
COLO 205 colon = system: COLO 205 colon
SF-268 CNS = system: SF-268 CNS

Cc1[nH]c2ccccc2c1-c1n[nH]c(=O)c2ccccc12
TGI (IGROV1 ovarian): > 100 µM
TGI (U251 CNS): > 100 µM
TGI (HL-60(TB) leukemia): 55.6 µM
TGI (SF-539 CNS): > 100 µM
TGI (K-562 leukemia): > 100 µM
TGI (HCC-2998 colon): > 100 µM
TGI (OVCAR-8 ovarian): > 100 µM
TGI (SK-MEL-28 melanoma): > 100 µM
TGI (M14 melanoma): > 100 µM
TGI (UO-31 renal): 61.9 µM
TGI (MOLT-4 leukemia): 81.3 µM
TGI (RPMI-8226 leukemia): 74.7 µM
TGI (M19-MEL melanoma): > 100 µM
TGI (SNB-78 CNS): > 100 µM
TGI (UACC-62 melanoma): > 100 µM
TGI (ACHN renal): > 100 µM
TGI (A549 NSCLC): > 100 µM
TGI (HOP-62 NSCLC): 50.3 µM
TGI (OVCAR-4 ovarian): > 100 µM
TGI (MALME-3M melanoma): 74.4 µM
TGI (XF 498 CNS): 76.2 µM
TGI (SW-620 colon): > 100 µM
TGI (DLD-1 colon): > 100 µM
TGI (SNB-75 CNS): 57.9 µM
TGI (HT29 colon): > 100 µM
TGI (HCT-15 colon): > 100 µM
TGI (LXFL 529 NSCLC): > 100 µM
TGI (SK-MEL-2 melanoma): > 100 µM
TGI (DMS 114 small cell lung): 58.7 µM
TGI (HCT-116 colon): 35.8 µM
TGI (SK-OV-3 ovarian): 72.1 µM
TGI (RXF-631 renal): 66.1 µM
TGI (DMS 273 small cell lung): 72.9 µM
TGI (SK-MEL-5 melanoma): 41 µM
TGI (RXF 393 renal): 37.1 µM
TGI (NCI-H226 lung): 85.3 µM
TGI (KM12 colon): > 100 µM
TGI (EKVX NSCLC): > 100 µM
TGI (OVCAR-5 ovarian): > 100 µM
TGI (UACC-257 melanoma): > 100 µM
TGI (CCRF-CEM leukemia): > 100 µM
TGI (NCI-H460 lung): > 100 µM
TGI (NCI-H23 lung): > 100 µM
TGI (TK-10 renal): > 100 µM
TGI (SF-295 CNS): 91.8 µM
TGI (KM20L2 colon): 92.6 µM
TGI (CAKI-1 renal): > 100 µM
TGI (OVCAR-3 ovarian): 67.3 µM
TGI (786-0 renal): > 100 µM
TGI (A498 renal): 63.5 µM

O=C(Nc1ccccc1)C(=O)C(C(=O)c1ccccc1F)C1OC(=O)c2ccccc21 (stereo not given)
TGI (IGROV1 ovarian): > 100 µM
TGI (U251 CNS): 46.9 µM
TGI (HL-60(TB) leukemia): 75.6 µM
TGI (SF-539 CNS): 43.2 µM
TGI (K-562 leukemia): > 100 µM
TGI (HCC-2998 colon): 57.4 µM
TGI (OVCAR-8 ovarian): 55 µM
TGI (SK-MEL-28 melanoma): > 100 µM
TGI (M14 melanoma): > 100 µM
TGI (UO-31 renal): > 100 µM
TGI (MOLT-4 leukemia): > 100 µM
TGI (RPMI-8226 leukemia): > 100 µM
TGI (HOP-92 NSCLC): > 100 µM
TGI (M19-MEL melanoma): > 100 µM
TGI (SNB-78 CNS): > 100 µM
TGI (UACC-62 melanoma): > 100 µM
TGI (SR leukemia): 77.9 µM
TGI (ACHN renal): > 100 µM
TGI (A549 NSCLC): > 100 µM
TGI (HOP-62 NSCLC): > 100 µM
TGI (OVCAR-4 ovarian): > 100 µM
TGI (XF 498 CNS): > 100 µM
TGI (SW-620 colon): > 100 µM
TGI (LOX IMVI melanoma): 63.2 µM
TGI (DLD-1 colon): > 100 µM
TGI (SNB-75 CNS): 72.2 µM
TGI (NCI-H522 lung): 61.8 µM
TGI (HT29 colon): > 100 µM
TGI (SN12C renal): > 100 µM
TGI (HCT-15 colon): 67.3 µM
TGI (SNB-19 CNS): > 100 µM
TGI (LXFL 529 NSCLC): > 100 µM
TGI (SK-MEL-2 melanoma): 93.8 µM
TGI (DMS 114 small cell lung): 61.7 µM
TGI (HCT-116 colon): 49.9 µM
TGI (SK-OV-3 ovarian): > 100 µM
TGI (RXF-631 renal): > 100 µM
TGI (DMS 273 small cell lung): > 100 µM
TGI (SK-MEL-5 melanoma): > 100 µM
TGI (RXF 393 renal): 63.2 µM
TGI (NCI-H226 lung): 62.6 µM
TGI (COLO 205 colon): 43.2 µM
TGI (KM12 colon): > 100 µM
TGI (EKVX NSCLC): > 100 µM
TGI (OVCAR-5 ovarian): > 100 µM
TGI (UACC-257 melanoma): > 100 µM
TGI (CCRF-CEM leukemia): > 100 µM
TGI (NCI-H460 lung): > 100 µM
TGI (NCI-H23 lung): > 100 µM
TGI (TK-10 renal): > 100 µM
TGI (SF-268 CNS): 81 µM
TGI (SF-295 CNS): > 100 µM
TGI (KM20L2 colon): > 100 µM
TGI (CAKI-1 renal): > 100 µM
TGI (A498 renal): > 100 µM
